In the first test the test system is Schoenoplectiella juncoides. Put plainly: Pre-emergence herbicidal activity against Schoenoplectiella juncoides assessed as weed killing at 2 kg ai/ha measured 30 days after compound treatment under green house conditions. In kind it is functional.
Regarding `CC1CCc2ccccc2N1C1=NC(=O)C(C)(C)S1` (centres undefined), the Activity amounted to 90%.
`CCCC1(C)SC(N(C)c2ccccc2)=NC1=O` (centres undefined): the Activity is given as 80%.
As for `CN(C1=NC(=O)C(C)(CCCl)S1)c1ccccc1` (centres undefined), the Activity is 90%.
The same measure, in the same setting: in the case of `CCC1(C)SC(N(C)c2ccccc2)=NC1=O` (centres undefined) it was 90%; in that of `CCN(C1=NC(=O)C(C)(C)S1)c1ccccc1`, 80%; in that of `CN(C1=NC(=O)C(C)(C)S1)c1ccccc1`, 80%.
As to `CCCCN(C)C1=NC(=O)C(C)(C)S1`, the Activity is given as 0%.
For `CC1SC(N(C)c2ccccc2)=NC1=O` (centres undefined), the Activity amounted to 20%.
Regarding `CN(C1=NC(=O)CS1)c1ccccc1`, the Activity came to 0%.
Same read-out and setting: the same measure for `CC1(C)SC(N2CCCc3ccccc32)=NC1=O`: 90%; for `CC1(C)SC(N2CCc3ccccc32)=NC1=O`: 80%.

A further test relates to Schoenoplectiella juncoides. Put plainly: Post-emergence herbicidal activity against Schoenoplectiella juncoides assessed as weed killing at 2 kg ai/ha measured 30 days after compound treatment under green house conditions. In kind it is functional.
`CC1CCc2ccccc2N1C1=NC(=O)C(C)(C)S1` (centres undefined): the Activity came out at 80%.
`CCCC1(C)SC(N(C)c2ccccc2)=NC1=O` (centres undefined): the Activity is given as 20%.
In the case of `CN(C1=NC(=O)C(C)(CCCl)S1)c1ccccc1` (centres undefined), the Activity was 80%.
On the same count and under the same terms, in the case of `CCC1(C)SC(N(C)c2ccccc2)=NC1=O` (centres undefined) it was 40%; in that of `CCN(C1=NC(=O)C(C)(C)S1)c1ccccc1`, 20%.
Regarding `CN(C1=NC(=O)C(C)(C)S1)c1ccccc1`, the Activity is 60%.
For the compound `CCCCN(C)C1=NC(=O)C(C)(C)S1`, the Activity worked out at 0%.
Take `CC1SC(N(C)c2ccccc2)=NC1=O` (centres undefined): the Activity came to 20%.
Still for that read-out and setting: the same measure for `CN(C1=NC(=O)CS1)c1ccccc1`: 0%; for `CC1(C)SC(N2CCCc3ccccc32)=NC1=O`: 60%.
For `CC1(C)SC(N2CCc3ccccc32)=NC1=O`, the Activity turned out to be 20%.

Another test deals with Echinochloa oryzicola. Put plainly: Pre-emergence herbicidal activity against Echinochloa oryzicola assessed as weed killing at 2 kg ai/ha measured 30 days after compound treatment under green house conditions. In kind it is functional.
As for `CC1CCc2ccccc2N1C1=NC(=O)C(C)(C)S1` (centres undefined), the Activity is 90%.
With `CCCC1(C)SC(N(C)c2ccccc2)=NC1=O` (centres undefined), the Activity was found to be 80%.
`CN(C1=NC(=O)C(C)(CCCl)S1)c1ccccc1` (centres undefined): the Activity was determined as 80%.
`CCC1(C)SC(N(C)c2ccccc2)=NC1=O` (centres undefined): the Activity is 80%.
For `CCN(C1=NC(=O)C(C)(C)S1)c1ccccc1`, the Activity came out at 80%.
Same read-out and setting: in the case of `CN(C1=NC(=O)C(C)(C)S1)c1ccccc1` it was 90%; in that of `CCCCN(C)C1=NC(=O)C(C)(C)S1`, 0%; in that of `CC1SC(N(C)c2ccccc2)=NC1=O` (centres undefined), 20%.
Take `CN(C1=NC(=O)CS1)c1ccccc1`: the Activity was found to be 0%.
For `CC1(C)SC(N2CCCc3ccccc32)=NC1=O`, the Activity was found to be 90%.
Consider `CC1(C)SC(N2CCc3ccccc32)=NC1=O`, for which the Activity is on record as 80%.

A further test deals with Echinochloa oryzicola. Put plainly: Post-emergence herbicidal activity against Echinochloa oryzicola assessed as weed killing at 2 kg ai/ha measured 30 days after compound treatment under green house conditions. In kind it is functional.
On to `CC1CCc2ccccc2N1C1=NC(=O)C(C)(C)S1` (centres undefined), for which the Activity is listed as 90%.
Take `CCCC1(C)SC(N(C)c2ccccc2)=NC1=O` (centres undefined): the Activity turned out to be 70%.
As to `CN(C1=NC(=O)C(C)(CCCl)S1)c1ccccc1` (centres undefined), the Activity is 100%.
As for `CCC1(C)SC(N(C)c2ccccc2)=NC1=O` (centres undefined), the Activity is 80%.
Regarding `CCN(C1=NC(=O)C(C)(C)S1)c1ccccc1`, the Activity was determined as 60%.
For the compound `CN(C1=NC(=O)C(C)(C)S1)c1ccccc1`, the Activity is 80%.
In the case of `CCCCN(C)C1=NC(=O)C(C)(C)S1`, the Activity stood at 0%.
With `CC1SC(N(C)c2ccccc2)=NC1=O` (centres undefined), the Activity is 20%.
Same read-out and setting: the same measure for `CN(C1=NC(=O)CS1)c1ccccc1`: 0%; for `CC1(C)SC(N2CCCc3ccccc32)=NC1=O`: 90%.
As to `CC1(C)SC(N2CCc3ccccc32)=NC1=O`, the Activity came out at 80%.
